We go through 19 compounds from patent US8324268B2, “Substituted furancarboxamides, and use thereof” (AiCuris GmbH & Co. KG, priority 2008, dated 2012).

SMILES strings stand for the structures.

Holding throughout (format): cell-based
The test system of test [1] is HIV-1LAI. Briefly: H9 assay with wild-type HIV-1 (HIV-1LAI supernatant infection, AlamarBlue). Conditions: Human immunodeficiency virus 1, H9 cells, 10% FCS. The method, then:
For the mixture for a 96-well MTP, 3 million PBLs are pelleted, suspended in 1 ml of RPMI 1640 medium/10% FCS and incubated together with a suitable amount of HIV-1LAI (NIH AIDS Research & Reference Reagent Program, Germantown, USA) at 37° C. for 2 hours (pellet infection). Unadsorbed viruses are subsequently washed out with PBS, and the infected cells are pelleted again and suspended in 18 ml of RPMI 1640 medium/10% FCS/interleukin-2 (40 U/ml). 180 μl thereof are pipetted into each well of a white 96-well MTP with 20 μl of test substance in suitable dilution. Alternatively, after preparation of the substance dilutions in the MTP, the HIV is pipetted in together with the cells and is not washed out again (supernatant infection). In order to avoid edge effects, the wells at the edge of the MTP are not used for substance dilutions. The second vertical row of the MTP contains only infected cells (virus control) and the eleventh vertical row only uninfected cells (cell control), in each case in RPMI 1640 medium/10% FCS/interleukin-2 (40 U/ml). The other wells of the MTP contain the compounds of the invention in various concentrations starting from the third vertical row, from which the test substances are diluted in 3-fold steps up to the tenth vertical row 3^7-fold. The test substances are dissolved in DMSO, whereby the final DMSO concentration in the test mixture is 1%. The test mixtures are incubated at 37° C./5% CO2. After 5 and 7 days, 50 μl of cell-free supernatant are removed from each well to determine the amount of p24 present by means of a p24 ELISA (HIV-1 p24^CA Antigen Capture Assay Kit, NCI-Frederick Cancer Research and Development Center, Frederick, USA). From the resulting values of the photometric evaluation (450/620 nm) the EC50 values of the test substances are determined as the concentration at which the amount of p24 is 50% of the untreated infected cells.
Alternatively, H9 cells (ATCC, Wesel, Germany) are employed instead of PBLs for testing the test substances. H9 cells are incubated in RPMI 1640 medium with 2% or 10% FCS as a HIV-ILAI supernatant infection at 37° C./5% CO2, (20 μl of substance dilution and 80 μl of cells/virus per well) in accordance with the pattern described above for 5 days. Subsequently, 10 μl of AlamarBlue® (Invitrogen, Karlsruhe, Germany) are added to each well, and the MTPs are incubated at 37° C. for 3 hours before the fluorimetric evaluation takes place (544/590 nm). The resulting values are about 40 000 for the untreated uninfected cells and about 7000 for the untreated infected cells. In the low concentration range, the EC50 values of the test substances are determined as the concentration at which the fluorescence is 50% of the untreated uninfected cells (in each case subtracting the values of the untreated infected cells). In addition, in the high concentration range, the CC50 values of the test substances are determined as the concentration at which the fluorescence is 50% of the untreated uninfected cells (in each case subtracting the values of the untreated infected cells).
A general note: Resazurin is reduced to fluorescent resorufin, in cell work by metabolically active cells.

For test [2], the system named is HIV-1NL4-3 wt. Briefly: Light assay with wild-type HI reporter virus in MT4 7F2 cells. Conditions: Human immunodeficiency virus 1, 2% FCS. The method, then: (§1) For the mixture for a 96-well MTP, 3 million MT4 7F2 cells are pelleted, suspended in 1 ml of RPMI 1640 medium without phenol red (Invitrogen, Karlsruhe, Germany)/10% FCS/10% AIM-V (Invitrogen, Karlsruhe, Germany) and incubated together with a suitable amount of the corresponding HIV-1NL4-3 reporter virus at 37° C. for 2 hours (pellet infection). Unadsorbed viruses are subsequently washed out with PBS, and the infected cells are pelleted again and suspended in 8 ml of RPMI 1640 medium without phenol red/2% or 10% FCS/10% AIM-V. 80 μl thereof are pipetted into each well of a white 96-well MTP with 20 μl of test substance in suitable dilution. To avoid edge effects, the wells on the edge of the MTP are not used for substance dilutions. The second vertical row of the MTP contains only infected cells (virus control) and the eleventh vertical row only uninfected cells (cell control), in each case in RPMI 1640 medium without phenol red/2% or 10% FCS/10% AIM-V. The other wells of the MTP contain the compounds of the invention in various concentrations starting from the third vertical row, from which the test substances are diluted in 3-fold steps up to the tenth vertical row 3^7-fold. The test substances are dissolved in DMSO, whereby the final DMSO concentration in the test mixture is 1%. The test mixtures are incubated at 37° C./5% CO2 for five days and, after the addition of 15 μl of Lu164 substrate (5 mg/ml coelenterazine dissolved in 30 μM glutathione/DMSO, 100 mM NaCl, 1M MES, 100 mM glutathione), evaluated by luminometry. The resulting values are in the region of 1 000 000 RLUs (relative light units) for the virus control and 300 to 400 RLUs for the cell control. The EC50 values of the test substances are determined as the concentration at which the virus replication measured in RLUs is 50% of the untreated infected cells.

For test [3], the system named is HIV-1NL4-3 K103N-Y181C. Nature of the test: Light assay with inhibitor-resistant HI reporter virus in MT4 7F2 cells. Particulars: Human immunodeficiency virus 1, read-out: EC50 (nM) MT4 7F2 cells HIV-1NL4-3 K103N-Y181C 2% FCS. The method, then: as §1

For orientation: EC50 means the midpoint of the concentration-response curve. On to `O=C1CN(C(=O)c2cc(-c3cc(F)cc(F)c3)c(-c3cccc(Cl)c3)o2)CCN1` [Example 17, 4-{[5-(3-Chlorophenyl)-4-(3,5-difluorophenyl)furan-2-yl]carbonyl}piperazin-2-one], for which the EC50 in test [1] is 135 nM; in test [2] it was 6 nM; in test [3], 350 nM.
The matching figures for `O=C1CN(C(=O)c2cc(-c3cc(F)cc(Cl)c3)c(-c3cccc(Cl)c3)o2)CN1` [Example 16, 1-{[4-(3-Chloro-5-fluorophenyl)-5-(3-chlorophenyl)furan-2-yl]carbonyl}imidazolidin-4-one]: 75 nM, 2 nM and 200 nM.
The matching figures for `Cc1cccc(-c2oc(C(=O)N3CCNC(=O)C3)cc2-c2cccc(Cl)c2)c1` [Example 18, 4-{[4-(3-Chlorophenyl)-5-(3-methylphenyl)furan-2-yl]carbonyl}piperazin-2-one]: 200 nM, 45 nM and 300 nM.
For the compound `N#Cc1cccc(-c2oc(C(=O)N3CCS(=O)(=O)C3)cc2-c2cc(F)cc(Cl)c2)c1` [Example 5, 3-{3-(3-Chloro-5-fluorophenyl)-5-[(1,1-dioxido-1,3-thiazolidin-3-yl)carbonyl]furan-2-yl}benzenecarbonitrile], the EC50 in test [1] is 17.5 nM; in test [2], less than 1.5 nM; in test [3], 305 nM.
The matching figures for `N#Cc1cc(F)cc(-c2cc(C(=O)N3CNC(=O)C3)oc2-c2cccc(Cl)c2)c1` [Example 32, 3-{2-(3-Chlorophenyl)-5-[(4-oxoimidazolidin-1-yl)carbonyl]furan-3-yl}-5-fluorobenzenecarbonitrile]: 70 nM, 2 nM and 150 nM.
As for `Cc1cc(-c2oc(C(=O)N3CCNC(=O)C3)cc2-c2cccc(Cl)c2)ccc1F` [Example 21, 4-{[4-(3-Chlorophenyl)-5-(4-fluor-3-methylphenyl)furan-2-yl]carbonyl}piperazin-2-one], the EC50 in test [1] is 200 nM; in test [2], 15 nM; in test [3], 120 nM.
The matching figures for `N#Cc1cccc(-c2oc(C(=O)N3CCSC3)cc2-c2cc(F)cc(Cl)c2)c1` [Example 1, 3-[3-(3-Chloro-5-fluorophenyl)-5-(1,3-thiazolidin-3-ylcarbonyl)furan-2-yl]benzenecarbonitrile]: 65 nM, 4.5 nM and 550 nM.
On to `N#Cc1cccc(-c2oc(C(=O)N3CCNC(=O)C3)cc2-c2cccc(Cl)c2)c1` [Example 20, 3-{3-(3-Chlorophenol)-5-[(3-oxopiperazin-1-yl)carbonyl]furan-2-yl}benzenecarbonitrile], for which the 50% effective concentration (EC50) in test [1] amounted to 50 nM; in test [2], 2 nM; in test [3], 137 nM.
Taken in the same sequence, the figures for `O=C1CN(C(=O)c2cc(-c3cc(F)cc(F)c3)c(-c3cccc(Cl)c3)o2)CN1` [Example 15, 1-{[5-(3-Chlorophenyl-1)-4-(3,5-difluorophenyl)furan-2-yl]carbonyl}imidazolidin-4-one] were 110 nM, 9 nM and 350 nM.
Taken in the same sequence, the figures for `N#Cc1cc(F)cc(-c2cc(C(=O)N3CNC(=O)C3)oc2-c2ccc(F)c(Cl)c2)c1` [Example 31, 3-{2-(3-Chloro-4-fluorophenyl)-5-[(4-oxoimidazolidin-1-yl)carbonyl]furan-3-yl}-5-fluorobenzenecarbonitrile] were 80 nM, 8 nM and 80 nM.
Regarding `N#Cc1cccc(-c2oc(C(=O)N3CC[C@@H](O)C3)cc2-c2cc(F)cc(Cl)c2)c1` [Example 10, 3-[3-(3-Chloro-5-fluorophenyl)-5-{[(3R)-3-hydroxypyrrolidin-1-yl]carbonyl}furan-2-yl]benzenecarbonitrile], the EC50 was 14 nM in test [1], 1 nM in test [2] and 183 nM in test [3].
Taken in the same sequence, the figures for `Cc1cc(C)cc(-c2cc(C(=O)N3CCNC(=O)C3)oc2-c2cccc(Cl)c2)c1` [Example 28, 4-{[5-(3-Chlorophenyl)-4-(3,5-dimethylphenyl)furan-2-yl]carbonyl}piperazin-2-one] were 200 nM, 30 nM and 400 nM.
Regarding `O=C1CN(C(=O)c2cc(-c3cccc(Cl)c3)c(-c3ccc(F)cc3)o2)CCN1` [Example 6, 4-{[4-(3-Chlorophenyl)-5-(4-fluorophenyl)furan-2-yl]carbonyl}piperazin-2-one], the EC50 in test [1] turned out to be 400 nM; in test [2], 48 nM; in test [3], 283 nM.
The matching figures for `N#Cc1cc(-c2oc(C(=O)N3CNC(=O)C3)cc2-c2cccc(Cl)c2)ccc1F` [Example 26, 5-{3-(3-Chlorophenyl)-5-[(4-oxoimidazolidin-1-yl)carbonyl]furan-2-yl}-2-fluorobenzenecarbonitrile]: 150 nM, 20 nM and 250 nM.
The matching figures for `COc1cccc(-c2oc(C(=O)N3CNC(=O)C3)cc2-c2cccc(Cl)c2)c1` [Example 27, 1-{[4-(3-Chlorophenyl)-5-(3-methoxyphenyl)furan-2-yl]carbonyl}imidazolidin-4-one]: 200 nM, 14 nM and 700 nM.
Consider `O=C1CN(C(=O)c2cc(-c3cc(F)cc(Cl)c3)c(-c3cccc(Cl)c3)o2)CCN1` [Example 14, 4-{[4-(3-Chloro-5-fluorophenyl)-5-(3-chlorophenyl)furan-2-yl]carbonyl}piperazin-2-one], for which the EC50 in test [1] worked out at 52 nM; in test [2] it was 1 nM; in test [3], 173 nM.
Taken in the same sequence, the figures for `N#Cc1cc(-c2oc(C(=O)N3CCNC(=O)C3)cc2-c2cccc(Cl)c2)ccc1F` [Example 24, 5-{3-(3-Chlorophenol)-5-[(3-oxopiperazin-1-yl)carbonyl]furan-2-yl}-2-fluorobenzenecarbonitrile] were 47 nM, 4 nM and 320 nM.
The matching figures for `N#Cc1cc(F)cc(-c2cc(C(=O)N3CCNC(=O)C3)oc2-c2cccc(Cl)c2)c1` [Example 33, 3-{2-(3-Chlorophenyl)-5-[(3-oxopiperazin-1-yl)carbonyl]furan-3-yl}-5-fluorobenzenecarbonitrile]: 25 nM, less than 1.5 nM and 200 nM.
Taken in the same sequence, the figures for `N#Cc1cc(-c2oc(C(=O)N3CNC(=O)C3)cc2-c2cc(F)cc(Cl)c2)ccc1F` [Example 23, 5-{3-(3-Chloro-5-fluorophenyl)-5-[(4-oxoimidazolidin-1-yl)carbonyl]furan-2-yl}-2-fluorobenzenecarbonitrile] were 18 nM, 2 nM and 100 nM.
